Source: US10280184B2, “Heterocyclic kinase inhibitors” (AbbVie Inc., priority 2014, dated 2019)

biological target: CSF-1R (Homo sapiens (Human), UniProt P07333); test: In vitro CSF-1R kinase activity measured by trFRET; format: biochemical; conditions: recombinant human catalytic domain (aa 538-910), 0.1 mM ATP; read-out: CSF-1R enzyme IC50
Experimental: In Vitro CSF-1R Kinase Activity Measured by Time-Resolved Fluorescence Resonance Energy Transfer (trFRET)
(§1) The CSF-1R construct corresponds to recombinant human catalytic domain (aa 538-910), which was purchased from Invitrogen (cat #PV4092). CSF-1R was mixed with peptide substrate (biotin-TYR1, Sequence: Biotin-(Ahx)-GAEEEIYAAFFA-COOH, 4 μM final) at varying inhibitor concentrations in reaction buffer: 50 mM MOPSO pH 6.5, 10 mM MgCl2, 2 mM MnCl2, 2.5 mM DTI, 0.01% BSA, 0.1 mM Na3VO4 and 0.1 mM ATP. After about 60 min incubation at rt, the reaction was quenched by addition of EDTA (final concentration: 100 mM) and developed by addition of detection reagents (final approximate concentrations: 30 mM HEPES pH 7.0, 0.06% BSA, 0.006% Tween-20, 0.24 M KF, 80 ng/mL PT66K (europium labeled anti-phosphotyrosine antibody cat #61T66KLB Cisbio, Bedford, Mass.) and 0.6 μg/mL SAXL (Phycolink streptavidin-allophycocyanin acceptor, cat #PJ25S, Prozyme, San Leandro, Calif.). The developed reaction was incubated in the dark for about 60 min at rt, then read via a time-resolved fluorescence detector (Rubystar, BMG) using a 337 nm laser for excitation and monitoring emission wavelength at 665 nm. Within the linear range of the assay, the observed signal at 665 nm was directly related to phosphorylated product and can be used to calculate the IC50 values.

CSF-1R, sequence (P07333 538-910): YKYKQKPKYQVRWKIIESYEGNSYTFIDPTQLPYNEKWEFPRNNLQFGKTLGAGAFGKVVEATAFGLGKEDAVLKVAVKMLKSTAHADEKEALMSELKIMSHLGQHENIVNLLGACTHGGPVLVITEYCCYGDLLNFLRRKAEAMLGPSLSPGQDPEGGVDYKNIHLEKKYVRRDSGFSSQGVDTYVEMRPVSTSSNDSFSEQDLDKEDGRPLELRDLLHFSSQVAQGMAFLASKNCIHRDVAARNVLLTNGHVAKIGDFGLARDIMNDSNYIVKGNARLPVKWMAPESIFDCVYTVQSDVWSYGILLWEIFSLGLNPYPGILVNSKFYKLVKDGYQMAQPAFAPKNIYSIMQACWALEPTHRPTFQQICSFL

Row | Structure (SMILES) | IC50
1 | c1nc2c(Nc3cnn(C4CCNCC4)c3)nc(C3CCCC3)cn2n1 [D.1.2, 6-cyclopentyl-N-(1-(piperidin-4-yl)-1H-pyrazol-4-yl)-[1,2,4]triazolo[1,5-a]pyrazin-8-amine] | < 0.1 µM
2 | c1nc2c(Nc3cnn(C4CCOCC4)c3)nc(C3CCCCC3)cn2n1 [A.1.2, 6-cyclohexyl-N-(1-(tetrahydro-2H-pyran-4-yl)-1H-pyrazol-4-yl)-[1,2,4]triazolo[1,5-a]pyrazin-8-amine] | < 0.1 µM
3 | c1nc2c(Nc3cc4n(n3)CCOC4)cc(C3CCCC3)cn2n1 [Example 12, N-(6-cyclopentyl-[1,2,4]triazolo[1,5-a]pyridin-8-yl)-6,7-dihydro-4H-pyrazolo[5,1-c][1,4]oxazin-2-amine] | < 0.1 µM
4 | Cn1cc(Nc2nc(C3CCCCC3)cn3ncnc23)cn1 [E.1.10, 6-cyclohexyl-N-(1-methyl-1H-pyrazol-4-yl)-[1,2,4]triazolo[1,5-a]pyrazin-8-amine] | < 0.1 µM
5 | O[C@H]1CCC[C@H](n2cc(Nc3nc(C4CCCCC4)cn4ncnc34)cn2)C1 [G.1.1] | < 0.1 µM
6 | Cn1cc(Nc2nc(C3CCC(C)(C)CC3)cn3ncnc23)cn1 [E.1.2, 6-(4,4-dimethylcyclohexyl)-N-(1-methyl-1H-pyrazol-4-yl)-[1,2,4]triazolo[1,5-a]pyrazin-8-amine] | < 0.1 µM
7 | CC(=O)N1CCC(n2cc(Nc3nc(C4CCCCC4)cn4ncnc34)cn2)CC1 [F.1.43, 1-(4-(4-((6-cyclohexyl-[1,2,4]triazolo[1,5-a]pyrazin-8-yl)amino)-1H-pyrazol-1-yl)piperidin-1-yl)ethanone] | < 0.1 µM
8 | CN1CCC(n2cc(Nc3nc(C4CCCCC4)cn4ncnc34)cn2)CC1 [Example 14, 6-cyclohexyl-N-(1-(1-methylpiperidin-4-yl)-1H-pyrazol-4-yl)-[1,2,4]triazolo[1,5-a]pyrazin-8-amine] | < 0.1 µM
9 | Cn1cc(Nc2nc([C@H]3CC[C@@H](C)CC3)cn3ncnc23)cn1 [E.1.4] | < 0.1 µM
10 | CC(C)(O)CCn1cc(Nc2nc(C3CCCCC3)cn3ncnc23)cn1 [A.1.1, 4-(4-((6-cyclohexyl-[1,2,4]triazolo[1,5-a]pyrazin-8-yl)amino)-1H-pyrazol-1-yl)-2-methylbutan-2-ol] | < 0.1 µM
11 | CC(C)(O)Cn1cc(Nc2nc(C3CCCCC3)cn3ncnc23)cn1 [Example 11, 1-(4-((6-cyclohexyl-[1,2,4]triazolo[1,5-a]pyrazin-8-yl)amino)-1H-pyrazol-1-yl)-2-methylpropan-2-ol] | < 0.1 µM
12 | Cn1cc(Nc2nc(C3CCCC3)cn3ncnc23)cn1 [E.1.8, 6-cyclopentyl-N-(1-methyl-1H-pyrazol-4-yl)-[1,2,4]triazolo[1,5-a]pyrazin-8-amine] | < 0.1 µM
13 | CN1CCn2nc(Nc3cc(C4CCCCC4)cn4ncnc34)cc2C1 [E.1.7, 6-cyclohexyl-N-(5-methyl-4,5,6,7-tetrahydropyrazolo[1,5-a]pyrazin-2-yl)-[1,2,4]triazolo[1,5-a]pyridin-8-amine] | < 0.1 µM
14 | OCCCn1cc(Nc2nc(C3CCCCC3)cn3ncnc23)cn1 [Example 15, 3-(4-((6-cyclohexyl-[1,2,4]triazolo[1,5-a]pyrazin-8-yl)amino)-1H-pyrazol-1-yl)propan-1-ol] | < 0.1 µM
15 | CCOC(=O)[C@H]1CC[C@@H](n2cc(Nc3nc(C4CCCCC4)cn4ncnc34)cn2)CC1 [A.1.8, cis-ethyl 4-(4-((6-cyclohexyl-[1,2,4]triazolo[1,5-a]pyrazin-8-yl)amino)-1H-pyrazol-1-yl)cyclohexanecarboxylate] | < 0.1 µM
16 | O=C(O)[C@H]1CC[C@@H](n2cc(Nc3nc(C4CCCCC4)cn4ncnc34)cn2)CC1 [Example 16, cis-4-(4-((6-cyclohexyl-[1,2,4]triazolo[1,5-a]pyrazin-8-yl)amino)-1H-pyrazol-1-yl)cyclohexanecarboxylic acid] | < 0.1 µM
17 | O[C@@H]1CCC[C@@H](n2cc(Nc3nc(C4CCCCC4)cn4ncnc34)cn2)C1 [G.1.2] | < 0.1 µM
18 | CNC(=O)N1CCC(n2cc(Nc3nc(C4CCCCC4)cn4ncnc34)cn2)CC1 [F.1.44, 4-(4-((6-cyclohexyl-[1,2,4]triazolo[1,5-a]pyrazin-8-yl)amino)-1H-pyrazol-1-yl)-N-methylpiperidine-1-carboxamide] | < 0.1 µM
19 | O[C@@H]1CCC[C@H](n2cc(Nc3nc(C4CCCCC4)cn4ncnc34)cn2)C1 [G.1.3] | < 0.1 µM
20 | OC1CCN(c2ccc(Nc3cc(C4CCCCC4)cn4ncnc34)nc2)CC1 [Example 13, 1-(6-((6-cyclohexyl-[1,2,4]triazolo[1,5-a]pyridin-8-yl)amino)pyridin-3-yl)piperidin-4-ol] | < 0.1 µM
21 | c1nc2c(Nc3cnn(C4CCNCC4)c3)nc(C3CCCCC3)cn2n1 [D.1.1, 6-cyclohexyl-N-(1-(piperidin-4-yl)-1H-pyrazol-4-yl)-[1,2,4]triazolo[1,5-a]pyrazin-8-amine] | < 0.1 µM
22 | C[C@@H]1C[C@@H](n2cc(Nc3nc(C4CCCCC4)cn4ncnc34)cn2)C[C@H](C)N1 [Example 17, 6-cyclohexyl-N-(1-((2R,4S,6S)-2,6-dimethylpiperidin-4-yl)-1H-pyrazol-4-yl)-[1,2,4]triazolo[1,5-a]pyrazin-8-amine] | < 0.1 µM
23 | c1nc2c(Nc3cn[nH]c3)nc(C3CCCCC3)cn2n1 [A.1.7, 6-cyclohexyl-N-(1H-pyrazol-4-yl)-[1,2,4]triazolo[1,5-a]pyrazin-8-amine] | < 0.1 µM
24 | c1nc2c(Nc3cnn(C4COC4)c3)nc(C3CCCCC3)cn2n1 [A.1.4, 6-cyclohexyl-N-(1-(oxetan-3-yl)-1H-pyrazol-4-yl)-[1,2,4]triazolo[1,5-a]pyrazin-8-amine] | < 0.1 µM
25 | c1nc2c(Nc3cc4n(n3)CCOC4)cc(C3CCCCC3)cn2n1 [E.1.6, N-(6-cyclohexyl-[1,2,4]triazolo[1,5-a]pyridin-8-yl)-6,7-dihydro-4H-pyrazolo[5,1-c][1,4]oxazin-2-amine] | < 0.1 µM
26 | CN1CCn2nc(Nc3cc(C4CCCC4)cn4ncnc34)cc2C1 [E.1.9, 6-cyclopentyl-N-(5-methyl-4,5,6,7-tetrahydropyrazolo[1,5-a]pyrazin-2-yl)-[1,2,4]triazolo[1,5-a]pyridin-8-amine] | < 0.1 µM
27 | Cn1cc(Nc2nc([C@H]3CC[C@H](C(F)(F)F)CC3)cn3ncnc23)cn1 [E.1.5, N-(1-methyl-1H-pyrazol-4-yl)-6-((1R,4R)-4-(trifluoromethyl)cyclohexyl)-[1,2,4]triazolo[1,5-a]pyrazin-8-amine] | < 0.1 µM

biological target: BTK (Homo sapiens (Human), UniProt Q06187); test: In vitro BTK kinase activity measured by trFRET; format: biochemical; conditions: recombinant human catalytic domain (aa 393-659), 0.01 mM ATP; read-out: Btk enzyme IC50
Sequence (Q06187 393-659): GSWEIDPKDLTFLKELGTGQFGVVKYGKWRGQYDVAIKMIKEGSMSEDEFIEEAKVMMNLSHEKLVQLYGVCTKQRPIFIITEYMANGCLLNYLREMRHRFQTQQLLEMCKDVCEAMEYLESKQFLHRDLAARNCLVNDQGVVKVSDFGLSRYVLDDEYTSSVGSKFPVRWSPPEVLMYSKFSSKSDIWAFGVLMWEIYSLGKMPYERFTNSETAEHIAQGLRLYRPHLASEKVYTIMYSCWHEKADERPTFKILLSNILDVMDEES
Experimental: In Vitro BTK Kinase Activity Measured by Time-Resolved Fluorescence Resonance Energy Transfer (trFRET)
as §1, with “The in-house BTK” for “The CSF-1R construct”, “(aa 393-659),” for “(aa 538-910),”, “was expressed in SF9 cells with an N-terminal his tag and purified by immobilized metal affinity chromatography. BTK” for “was purchased from Invitrogen (cat #PV4092). CSF-1R”, “Biotin-(Ahx)-GAEEEIYAAFFA-COOH, 0.4” for “Biotin-(Ahx)-GAEEEIYAAFFA-COOH, 4”, “mM DTT,” for “mM DTI,”, “and 0.01” for “and 0.1”

Row | Structure (SMILES) | IC50
28 | C=CC(=O)N1CCC(c2cc(Nc3cc4n(n3)CCOC4)c3nccn3n2)C1 (stereo not shown) [F.1.41, 1-(3-(8-((6,7-dihydro-4H-pyrazolo[5,1-c][1,4]oxazin-2-yl)amino)imidazo[1,2-b]pyridazin-6-yl)pyrrolidin-1-yl)prop-2-en-1-one] | < 0.1 µM
29 | N#CN1CCCC(c2cc(Nc3cc4n(n3)CCOC4)c3ncnn3c2)C1 (stereo not shown) [I.1.3, 3-(8-((6,7-dihydro-4H-pyrazolo[5,1-c][1,4]oxazin-2-yl)amino)-[1,2,4]triazolo[1,5-a]pyridin-6-yl)piperidine-1-carbonitrile] | 0.1 to 1 µM
30 | C=CC(=O)N1CC[C@H](c2cn3ncnc3c(Nc3ccc(OC)c(OC)c3)n2)C1 [F.1.11] | 0.1 to 1 µM
31 | C=CC(=O)N1CCCC(c2cc(Nc3nc(C)no3)c3ncnn3c2)C1 (stereo not shown) [Example F1.32, 1-(3-(8-((3-methyl-1,2,4-oxadiazol-5-yl)amino)-[1,2,4]triazolo[1,5-a]pyridin-6-yl)piperidin-1-yl)prop-2-en-1-one] | 1 to 50 µM
32 | C=CC(=O)N1CC[C@@H](c2cc(Nc3cc4n(n3)CCN(C)C4)c3ncnn3c2)C1 [F.1.39] | < 0.1 µM
33 | C=CC(=O)N[C@@H]1CC[C@H](c2cc(Nc3cc4n(n3)CCOC4)c3ncnn3c2)C1 (single isomer, unassigned) [Example 8 (1R,3S)] | < 0.1 µM
34 | C=CC(=O)N1CCC(c2cn3ncnc3c(Nc3ccn(C)n3)n2)C1 (stereo not shown) [F.1.23, 1-(3-(8-((1-methyl-1H-pyrazol-3-yl)amino)-[1,2,4]triazolo[1,5-a]pyrazin-6-yl)pyrrolidin-1-yl)prop-2-en-1-one] | 1 to 50 µM
